For one assay, the system named is Escherichia phage T7. As to the kind of experiment: Inhibition of T7 RNA polymerase […] at 100 uM.
For another assay, the system named is Brassica oleracea. As to the kind of experiment: Inhibition of cauliflower DNA polymerase alpha at 100 uM.
Assay [1] has as its target T1, DNA polymerase lambda (Homo sapiens) (UniProt Q9UGP5).
T1 sequence (whole entry): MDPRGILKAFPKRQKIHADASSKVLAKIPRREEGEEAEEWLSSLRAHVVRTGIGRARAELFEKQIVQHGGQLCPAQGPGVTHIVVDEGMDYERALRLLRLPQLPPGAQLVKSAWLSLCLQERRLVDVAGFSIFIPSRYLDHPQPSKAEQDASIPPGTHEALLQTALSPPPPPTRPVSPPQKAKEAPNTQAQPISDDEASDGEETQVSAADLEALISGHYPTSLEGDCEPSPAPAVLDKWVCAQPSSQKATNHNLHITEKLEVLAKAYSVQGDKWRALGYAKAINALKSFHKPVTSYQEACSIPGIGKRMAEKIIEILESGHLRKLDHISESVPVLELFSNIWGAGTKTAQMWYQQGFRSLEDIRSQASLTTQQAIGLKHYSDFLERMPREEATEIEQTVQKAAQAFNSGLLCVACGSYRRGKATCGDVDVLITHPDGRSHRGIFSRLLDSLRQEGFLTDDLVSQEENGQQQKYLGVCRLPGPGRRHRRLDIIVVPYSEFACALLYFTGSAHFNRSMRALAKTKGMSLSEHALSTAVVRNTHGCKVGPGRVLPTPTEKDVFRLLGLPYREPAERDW
Put plainly: Inhibition of human DNA polymerase lambda at 100 uM.

In assay [2] the target is Human immunodeficiency virus type 1 reverse transcriptase (Human immunodeficiency virus 1) (UniProt Q72547). As to the kind of experiment: Inhibition of human immunodeficiency virus 1 reverse transcriptase at 100 uM.
For assay [3], the species on record is Bos taurus. Put plainly: Inhibition of calf terminal deoxynucleotidyl transferase at 100 uM.
Assay [4] is filed under the species Bos taurus. Put plainly: Inhibition of calf DNA polymerase alpha at 100 uM.
For assay [5], the species on record is Homo sapiens. As to the kind of experiment: Inhibition of human DNA polymerase gamma at 100 uM.
Assay [6] deals with Telomerase reverse transcriptase (Homo sapiens) (UniProt O14746). As to the kind of experiment: Inhibition of human telomerase at 100 uM.
Chain of Telomerase reverse transcriptase (Homo sapiens) (O14746 whole entry): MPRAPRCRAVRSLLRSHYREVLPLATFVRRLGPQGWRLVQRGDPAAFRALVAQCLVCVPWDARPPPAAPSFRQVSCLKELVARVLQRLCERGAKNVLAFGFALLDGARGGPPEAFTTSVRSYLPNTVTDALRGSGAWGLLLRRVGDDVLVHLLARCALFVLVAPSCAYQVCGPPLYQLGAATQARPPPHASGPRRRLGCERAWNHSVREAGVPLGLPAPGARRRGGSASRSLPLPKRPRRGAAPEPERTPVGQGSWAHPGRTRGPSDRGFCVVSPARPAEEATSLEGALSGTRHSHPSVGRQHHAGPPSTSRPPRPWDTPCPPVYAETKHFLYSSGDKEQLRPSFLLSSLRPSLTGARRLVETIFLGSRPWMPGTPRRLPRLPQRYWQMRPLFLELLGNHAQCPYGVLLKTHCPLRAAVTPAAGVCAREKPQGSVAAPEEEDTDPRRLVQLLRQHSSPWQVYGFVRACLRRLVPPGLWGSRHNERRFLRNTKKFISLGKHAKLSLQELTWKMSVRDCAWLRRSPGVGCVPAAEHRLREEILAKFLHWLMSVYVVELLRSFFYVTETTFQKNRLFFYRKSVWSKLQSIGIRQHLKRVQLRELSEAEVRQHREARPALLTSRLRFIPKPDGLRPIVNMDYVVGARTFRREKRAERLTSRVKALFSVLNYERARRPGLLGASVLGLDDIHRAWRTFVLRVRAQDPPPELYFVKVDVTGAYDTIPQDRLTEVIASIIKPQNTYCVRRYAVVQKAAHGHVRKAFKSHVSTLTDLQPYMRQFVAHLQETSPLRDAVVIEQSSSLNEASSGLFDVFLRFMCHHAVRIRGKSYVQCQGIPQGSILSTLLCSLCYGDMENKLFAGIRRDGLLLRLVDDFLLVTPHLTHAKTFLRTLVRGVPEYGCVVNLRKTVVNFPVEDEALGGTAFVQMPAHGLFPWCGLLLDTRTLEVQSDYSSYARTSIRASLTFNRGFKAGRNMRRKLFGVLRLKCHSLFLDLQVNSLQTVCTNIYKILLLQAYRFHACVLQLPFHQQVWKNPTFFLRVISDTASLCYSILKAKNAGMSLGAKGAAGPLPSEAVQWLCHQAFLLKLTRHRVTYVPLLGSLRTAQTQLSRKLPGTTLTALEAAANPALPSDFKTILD
Assay [7] addresses Polynucleotide kinase (Enterobacteria phage T4) (UniProt P06855). As to the kind of experiment: Inhibition of T4 polynucleotide kinase at 100 uM. The following applies: Tequatrovirus T4.
The target of assay [8] is T2, DNA polymerase iota (Homo sapiens) (UniProt Q9UNA4).
T2 sequence (whole entry): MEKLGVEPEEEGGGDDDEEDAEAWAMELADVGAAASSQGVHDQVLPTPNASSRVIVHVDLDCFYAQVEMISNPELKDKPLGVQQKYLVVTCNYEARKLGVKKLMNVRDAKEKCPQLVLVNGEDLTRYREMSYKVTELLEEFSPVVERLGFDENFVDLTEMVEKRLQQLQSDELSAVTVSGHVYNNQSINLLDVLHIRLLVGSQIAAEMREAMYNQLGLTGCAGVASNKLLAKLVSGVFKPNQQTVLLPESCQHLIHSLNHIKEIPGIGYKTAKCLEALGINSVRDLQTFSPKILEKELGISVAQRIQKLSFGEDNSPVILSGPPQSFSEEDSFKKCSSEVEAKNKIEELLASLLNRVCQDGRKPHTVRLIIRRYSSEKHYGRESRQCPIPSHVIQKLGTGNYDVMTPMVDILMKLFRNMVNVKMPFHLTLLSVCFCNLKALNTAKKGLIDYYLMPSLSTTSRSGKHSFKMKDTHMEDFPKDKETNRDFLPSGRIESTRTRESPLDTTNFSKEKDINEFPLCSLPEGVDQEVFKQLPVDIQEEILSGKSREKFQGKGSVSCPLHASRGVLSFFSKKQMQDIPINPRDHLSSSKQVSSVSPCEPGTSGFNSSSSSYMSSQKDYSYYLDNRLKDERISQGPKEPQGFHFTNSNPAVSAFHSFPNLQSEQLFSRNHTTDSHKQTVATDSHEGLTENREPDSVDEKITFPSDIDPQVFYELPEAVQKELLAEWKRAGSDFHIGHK
As to the kind of experiment: Inhibition of human DNA polymerase iota at 100 uM.

The target in assay [9] is Deoxyribonuclease-1 (Bos taurus) (UniProt P00639). Put plainly: Inhibition of bovine deoxyribonuclease 1 at 100 uM.
Chain of Deoxyribonuclease-1 (Bos taurus) (P00639 whole entry): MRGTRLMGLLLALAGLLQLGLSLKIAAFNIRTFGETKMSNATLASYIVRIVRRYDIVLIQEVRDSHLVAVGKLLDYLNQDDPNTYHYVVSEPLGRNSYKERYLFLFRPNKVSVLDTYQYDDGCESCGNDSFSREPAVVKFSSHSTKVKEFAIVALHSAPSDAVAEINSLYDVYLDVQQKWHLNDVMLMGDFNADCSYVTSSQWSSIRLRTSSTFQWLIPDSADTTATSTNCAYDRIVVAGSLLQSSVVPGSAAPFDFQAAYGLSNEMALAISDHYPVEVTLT
In a further assay the test system is Thermus aquaticus. Put plainly: Inhibition of Taq DNA polymerase at 100 uM.
Assay [10] concerns the target T3, DNA polymerase eta (Homo sapiens) (UniProt Q9Y253).
T3 sequence (whole entry): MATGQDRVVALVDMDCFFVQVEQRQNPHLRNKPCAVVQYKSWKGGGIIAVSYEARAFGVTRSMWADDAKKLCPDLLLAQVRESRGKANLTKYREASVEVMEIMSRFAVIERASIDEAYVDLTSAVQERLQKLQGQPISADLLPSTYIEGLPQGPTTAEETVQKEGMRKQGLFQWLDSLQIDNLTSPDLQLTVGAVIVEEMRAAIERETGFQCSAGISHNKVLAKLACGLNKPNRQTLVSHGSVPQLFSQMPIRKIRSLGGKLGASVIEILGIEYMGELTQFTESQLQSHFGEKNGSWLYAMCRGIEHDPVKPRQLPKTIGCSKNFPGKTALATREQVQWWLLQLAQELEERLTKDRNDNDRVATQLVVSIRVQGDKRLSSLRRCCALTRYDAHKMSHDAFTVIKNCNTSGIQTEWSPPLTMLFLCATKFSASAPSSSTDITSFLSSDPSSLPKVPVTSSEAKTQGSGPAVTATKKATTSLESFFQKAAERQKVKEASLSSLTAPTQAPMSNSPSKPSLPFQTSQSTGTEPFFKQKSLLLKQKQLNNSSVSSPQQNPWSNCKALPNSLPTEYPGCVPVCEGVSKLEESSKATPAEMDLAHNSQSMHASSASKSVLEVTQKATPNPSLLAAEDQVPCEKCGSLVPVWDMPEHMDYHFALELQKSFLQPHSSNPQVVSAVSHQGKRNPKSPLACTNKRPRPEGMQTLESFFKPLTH
As to the kind of experiment: Inhibition of human DNA polymerase eta at 100 uM.

For assay [11], the species on record is Bos taurus. As to the kind of experiment: Inhibition of calf primase DNA polymerase alpha at 100 uM.
For assay [12], the species on record is Homo sapiens. Put plainly: Inhibition of human DNA polymerase epsilon at 100 uM.
Another assay concerns the target DNA polymerase beta (Rattus norvegicus, UniProt P06766). As to the kind of experiment: Inhibition of rat DNA polymerase beta.

Molecules are shown by their SMILES. Activity calls are given as the source filed them. The rule behind the calls is not given here.

Activity and IC50 data for 2 molecules are collected here from ChEMBL document CHEMBL1143937, “1-deoxyrubralactone, a novel specific inhibitor of families X and Y of eukaryotic DNA polymerases from a fungal strain derived from sea algae” (Bioorg Med Chem, 2008).

Chain of Polynucleotide kinase (Enterobacteria phage T4) (P06855 whole entry): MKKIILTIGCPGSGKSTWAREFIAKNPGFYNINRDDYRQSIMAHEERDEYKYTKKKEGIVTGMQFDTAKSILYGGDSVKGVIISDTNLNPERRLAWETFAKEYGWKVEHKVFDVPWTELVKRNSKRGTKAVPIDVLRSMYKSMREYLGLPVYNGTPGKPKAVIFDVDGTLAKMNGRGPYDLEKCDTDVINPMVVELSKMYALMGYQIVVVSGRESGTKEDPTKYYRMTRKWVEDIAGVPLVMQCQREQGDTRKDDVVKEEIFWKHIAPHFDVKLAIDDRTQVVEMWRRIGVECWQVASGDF

A word on the IC50: it is the concentration that gives 50% inhibition. A lower IC50 goes with inhibition by little substance. For `COc1cc(O)c2c(c1)C1(OC2=O)C(C)=CC(=O)C1O` (configuration not stated) [TALAROFLAVONE], the result (in the assay with Escherichia phage T7; in the assay with Brassica oleracea; in [2]; in the assay listed under Bos taurus [4]; in the assay filed under Homo sapiens [5]; in assay [6]) was inactive. In addition, the outcome (in assay [7]; in [9]; in the assay on Thermus aquaticus; in the assay filed under Bos taurus [11]; in the assay filed under Homo sapiens [12]) was inactive. Moreover, the outcome (in [1]; in the assay filed under Bos taurus [3]; in assay [8]; in assay [10]) was Active. The half-maximal inhibitory concentration (IC50) at DNA polymerase beta was found to be 16.3 µM.

In the case of `COc1cc(O)c2c(=O)oc3c(c2c1)C(C)CC3=O` (configuration not stated), the result (in the assay on Escherichia phage T7; in the assay with Brassica oleracea; in assay [2]; in the assay listed under Bos taurus [4]; in the assay listed under Homo sapiens [5]; in [6]) was inactive. For the same molecule, the outcome (in [7]; in assay [9]; in the assay with Thermus aquaticus; in the assay filed under Bos taurus [11]; in the assay filed under Homo sapiens [12]) was inactive. The result (in assay [1]; in the assay filed under Bos taurus [3]; in assay [8]; in assay [10]) was Active. Further, at DNA polymerase beta, the concentration for half-maximal inhibition (IC50) turned out to be 11.9 µM.
